Experimental data reported in patent US8211883B2, “Topical delivery of phthalocyanines” (priority 2004, dated 2012).

Assays:
[1] = test system: Chinese hamster V79-379 lung fibroblasts; experiment: Uptake of phthalocyanines into V79 cells; details: for n Moles/10^6 Cells/μM (composite uptake value): average of all data, asterisk: listed value is for 1 μM, average would be higher
Method: Chinese hamster V79-379 lung fibroblasts were grown in monolayer culture in McCoy's 5A medium (Gibco Laboratories, Grand Island, N.Y.) augmented with 10% calf serum and buffered with 20 mM HEPES (pH 7.4).
Total uptake was determined by scraping the phthalocyanine-treated monolayer, collecting the cells on a glass-fiber filter, and extracting the phthalocyanine in ethanol, as previously described by Ramakrishnan, et al., 1989. (Ramakrishnan, N., M. E. Clay, M. F. Horng, A. R. Antunez, & H. H. Evans, “DNA Lesions and DNA Degradation in Mouse Lymphoma L5178Y Cells After Photodynamic Treatment Sensitized by Chloroaluminum Phthalocyanine”, Photochem. Photobiol, in press, 1989). The amount of drug was determined by absorption at 674 nm and expressed relative to the number of cells, as measured in a Coulter cell counter on an aliquot of the cell population. Controls included cells not treated with drug, medium alone, and drug-containing medium without cells.
The cells were treated with 1 μM AlPcCl (from Eastman Kodak, Rochester, N.Y.) or with phthalocyanine compositions I-VI (0.5-1.0 μM final concentration in the medium) for 18 hours by adding the appropriate volume of a 1.0 mM stock solution in dimethylformamide (DMF) to the culture medium. The growth medium was replaced with 4 mL Hank's balanced salt solution (HBSS), and the cells were irradiated. The light source was a 500 W tungsten-halogen lamp located approximately 29 inches below the surface of a glass exposure tray. The visible light administered to the cells was filtered to allow passage of only that portion of the visible spectrum above 600 nm (Lee Primary red filter No. 106, Vincent Lighting, Cleveland, Ohio). The fluence rate was approximately 0.074 kJ/m^2/s at the level of the cell monolayer.
V79 cells Chinese hamster lung fibroblasts were cultured using the cell culture methods described above. The phthalocyanines listed in table 2 were added to the cultures typically at concentrations of 1 μM, 2 μM, and/or 4 μM and incubated for 18 hours, after which aliquots of the cells were counted and other aliquots were collected on a glass fiber filter. When the filters were dry, the phthalocyanines were extracted into ethanol and the absorption determined at the peak wavelength, usually 668 nm. Values were converted to nmoles taken up by 10^6 cells, using an extinction coefficient of 2.93×10^5.

[2] = test system: Chinese hamster V79-379 lung fibroblasts; experiment: Growth delay of V79 cultures after phthalocyanine and red light; type: cell-based; details: V79 cells; for Growth Delay (12 kj/m^2), Efficiency Relative to 1 μM (AlPcCl): 18 hours, 12 kJ/m^2 red light
Method: At the time of light exposure, there were approximately 1.5×10^5 cells per 25 cm^2 flask. Following irradiation, the HBSS was replaced by 10 mL of fresh complete growth medium, and the cultures were returned to the 37° C. incubator. At various times before and after irradiation, duplicate cultures were trypsinized and counted. Controls included untreated cells and cells treated with light alone or drug alone. In addition, in each experiment, the drug to be tested was compared to a standard treatment, i.e. 1 μM AlPcCl for 18 hours followed by 12 kJ/m^2 light.
The inhibition of V79 culture growth was measured during a three day period following red light irradiation (12 kJ/m^2) of phthalocyanine-pretreated cells. With each of the active compounds, as well as with AlPcCl, there was an initial decrease in cell density, as dead cells became detached from the monolayer. Thereafter, the cell number per flask increased, as living cells grew and divided. The time for the cell density to recover to the level at the time of light exposure was considered the growth delay. […] The ratio of the growth delay for the test photosensitizer and the growth delay for AlPcCl measured in the same experiment is recorded in Table 1. There was less inhibition of culture growth when cells were exposed to compounds III, V, or VI as expected from the poor cellular uptake of these drugs.

[3] = test system: Chinese hamster V79-379 lung fibroblasts; experiment: Clonogenic cell survival of V79 cells after photodynamic treatment; type: cell-based; details: for CF10(AIPcCI)/CF10 (Pc) / F10(AIPcCI)/F10 (Pc): 1.0 μM; for CF10(AIPcCI)/CF10 (Pc): CF10 = product of intracellular concentration and fluence reducing survival to 10%; for F10(AIPcCI)/F10 (Pc): F10 = fluence reducing cell survival to 10%
Method: Cells were irradiated at a density of approximately 2×10^6 per 25 cm^2 flask. Immediately after irradiation, the cell monolayer was treated with trypsin, and appropriate aliquots were plated in triplicate to give 100 to 200 colonies in each 10-cm Petri dish. Cell survival was determined by the ability of the cells to form colonies containing at least 50 cells. The response of cells treated with 1 μM AlPcCl and light was compared in each experiment.
Photocytotoxicity of the phthalocyanines compounds I to VI was also assessed by clonogenic assay (Table 1, FIG. 1). In all experiments, 1 μM AlPcCl was included for comparison purposes. From the survival curves (FIG. 1), the fluence reducing the cell survival to 10% (F10) was obtained. The ratio of the F10 for AlPcCl and the F10 for the test compound is recorded in Table 1. Compounds I and II appear to be nearly as efficient photosensitizers as AlPcCl, while compound IV (assayed at half the concentration) was almost twice as efficient as the standard AlPcCl. […] However, in spite of the low efficiency of compound V in inhibiting cell growth, survival measurements were made for this compound, because it was taken up into V79 cells somewhat more efficiently than compounds III and VI.
In order to take differences in cellular uptake into consideration in the assessment of the relative efficiency of these phthalocyanines as photosensitizers of V79 cells, the survival data were replotted against the product of intracellular phthalocyanine concentration and light fluence (FIG. 2). From these curves, the product of intracellular concentration and light fluence reducing survival to 10% (CF10) was obtained, and comparisons of the values for AlPcCl and the test compounds are recorded in Table 1. By this and the other criteria, compound IV appears to be the most efficient photosensitizer. However, when consideration is given to the lesser cell uptake of compound V, it appears to be about as strong a photosensitizer as compound IV.
Using the cell culture methods described above, V79 cells Chinese hamster lung fibroblasts were treated with either 0.5 or 1.0 μM of the phthalocyanines listed in Table 3. About 18 hours thereafter, the cells were irradiated with increasing doses of 675 nm broad band red light from a 500 W tungsten-halogen lamp fitted with a 600 nm high pass filter, to determine the light dosage that would kill 90% of the phthalocyanine treated cells. Where 90% of the cells were not killed, the maximum percent of cells killed were determined, (expressed as % survival) and the related light dosage recorded.

L5178Y cells = experiment: Induction of apoptosis (DNA ladder) in L5178Y cells after PDT; type: cell-based, Mouse; details: for C × F Ld90, Minimum Demonstrated Condition to Induce Apoptosis: product of concentration and fluence
[4] = test system: RIF-1 (radiation-induced fibrosarcoma) tumors; experiment: PDT of RIF-1 implanted tumors; type: in vivo, C3H/HeN mice; set-up: key to Tumor Responses at 24 hours: complete: no evidence of any tumor mass in any animal; only the scar from the photodynamic therapy was evident.; near complete: evidence of any tumor mass in four or five animals; only some tumor mass in one or two animals.; substantial: a significant tumor shrinkage occurred in all animals. In some animals the tumor response was complete, yet in others the response was not complete.; moderate: some tumor shrinkage was evident in some animals. In animals with some tumor shrinkage, scar formation was evident.; slight: some tumor decrease occurred in one or two mice; details: 1 mg/kg in corn oil, 675 nm; for Tumor Responses at 24 hours: 135 J/cm^2, light 24 h after dosing; for Doubling Time of Initial Tumor Volume after PDT: 135 J/cm^2, controls 4 days
Method: The relative effectiveness at reducing tumor volume of selected phthalocyanine compounds at a given dosage was compared in vivo. RIF-1, i.e., radiation-induced fibrosarcoma, tumors were implanted into the backs of C3H/HeN mice. One tumor was implanted per mouse. Each of the phthalocyanine compounds listed in Table 7 was sonicated and vortexed in corn oil to produce a suspension. When the tumors reached […] in diameter and 2-3 mm in thickness, each mouse received 1 mg/kg in 0.1 mL of the corn oil, of the phthalocyanine suspension. For comparison, select mice received a conventional photosensitizer; either 5 mg/kg of chloroaluminum phthalocyanine tetrasulfonate, herein also referred to as “AlPcTS” in phosphate buffered saline or 5 mg/kg of Photofrin®-II in 5% dextrose. Twenty-four hours after the photosensitizers were administered, the tumors were irradiated with visible radiation delivered by an argon-pumped dye laser. The mice that received a phthalocyanine photosensitizer received light having a wavelength of 675 nm and the mice that received the Photofrin® II photosensitizer received light having a wavelength of 630 nm. Each tumor received 135 J/cm^2 of radiation. Tumor size was measured every day using calipers. The initial tumor volume was 50±10 mm^3. Tumor volume was calculated according to the hemiellipsoid model by the formula: V=½(4π)/3×(½×(w/2))×h
• complete—no evidence of any tumor mass in any animal; only the scar from the photodynamic therapy was evident. • near complete—evidence of […] in four or five animals; only some tumor mass in one or two animals. • substantial—a significant tumor shrinkage occurred in all animals. In some animals the tumor response was complete, yet in others the response was not complete. • moderate—some tumor shrinkage was evident in some animals. In animals with some tumor shrinkage, scar formation was evident. • slight—some tumor decrease occurred in one or two mice.

Row | Compound | Uptake, Efficiency Relative to 1 μM (AlPcCl) ([1]; V79 cells, 1.0 μM, 18 hours) | uptake ([1]; V79 cells, 1 μM, mean±S. D., 25 determinations) [nmole/10^7 cells] | growth delay ([2]; 1 μM for 18 hours and 12 kj/m^2 light) | Growth Delay (12 kj/m^2), Efficiency Relative to 1 μM (AlPcCl) [2] | CF10(AIPcCI)/CF10 (Pc) [3] | F10(AIPcCI)/F10 (Pc) [3] | Uptake Into V79 Cells, 1 μM ([1]; 1 μM, 18 hours) [n Moles/10^6 cells] | Uptake Into V79 Cells, 4 μM ([1]; 18 hours) [n Moles/10^6 cells] | n Moles/10^6 Cells/μM (composite uptake value) ([1]; V79 cells) [n Moles/10^6 Cells/μM] | Maximum Effect (% survival at kj/m^2) ([3]; 0.5 μM, at 9 kj/m^2) [% at 9] | Fluence, Minimum Demonstrated Condition to Induce Apoptosis (L5178Y cells; 0.3 μM) [kJ/m^2] | C × F Ld90, Minimum Demonstrated Condition to Induce Apoptosis (L5178Y cells; 0.3 μM) [kJ/m^2] | Fluence, Minimum Demonstrated Condition to Induce Apoptosis (L5178Y cells; 0.5 μM) [kJ/m^2] | C × F Ld90, Minimum Demonstrated Condition to Induce Apoptosis (L5178Y cells; 0.5 μM) [kJ/m^2] | Fluence, Minimum Demonstrated Condition to Induce Apoptosis (L5178Y cells; 1.0 μM) [kJ/m^2] | C × F Ld90, Minimum Demonstrated Condition to Induce Apoptosis (L5178Y cells; 1.0 μM) [kJ/m^2] | Tumor Responses at 24 hours [4] | Doubling Time of Initial Tumor Volume after PDT [4] [days] | Maximum Effect (% survival at kj/m^2) ([3]; 1 μM, at 30 kj/m^2) [% at 30] | induction of apoptosis (L5178Y cells; 1 μM at a fluence of 30 kJ/m^2)
1 | [Cl][Al]1[n]2c3c4ccccc4c2N=C2N=C(N=c4c5ccccc5c([n]41)=NC1=NC(=N3)c3ccccc31)c1ccccc12 [AlPcCl, chloroaluminum phthalocyanine, reference compound] | 1.0 | 0.723±0.172 | approximately 24 hours | 1.0 | 1.0 | 1.0 | – | – | – | – | – | – | – | – | – | – | – | – | – | –
2 | C[Si](C)(CCCCNS(C)(=O)=O)O[Si]1(O)n2c3c4ccccc4c2N=C2N=C(N=c4c5ccccc5c(n41)=NC1=NC(=N3)c3ccccc31)c1ccccc12 (stereo not shown) [IX, HOSiPcOSi(CH3)2(CH2)4NHSO2CH3] | – | – | – | – | – | – | 0.1 ± 0.1 | 1.8 ± 0.8 | 0.3 | 44 | 12.0 | 3.6 | 8.0 | 4.0 | 12.0 | 12.0 | near complete | 11 | – | –
3 | C[Si](C)(CCCCNS(C)(=O)=O)O[Si]1(O[Si](C)(C)CCCCNS(C)(=O)=O)n2c3c4ccccc4c2N=C2N=C(N=c4c5ccccc5c(n41)=NC1=NC(=N3)c3ccccc31)c1ccccc12 [Compound VIII, SiPc[OSi(CH3)2(CH2)4NHSO2CH3]2] | – | – | – | – | – | – | 0.1 ± 0.04 | 0.8 ± 0.01 | 0.2 | – | – | – | – | – | – | – | slight | 4 | 94 | did not induce apoptosis
4 | CN(C)CCC[Si](C)(C)[O][Al]1[n]2c3c4ccccc4c2N=C2N=C(N=c4c5ccccc5c([n]41)=NC1=NC(=N3)c3ccccc31)c1ccccc12 [Compound I, AlPcOSi(CH3)2(CH2)3N(CH3)2] | – | – | – | 2.1 | 0.51 | 0.94 | – | – | – | – | – | – | – | – | – | – | – | – | – | –
